Results as given in patent publication US20240270679A1, “LIPIDS FOR USE IN LIPID NANOPARTICLE FORMULATIONS” (Acuitas Therapeutics, Inc., priority 2022, published 2024).
Marks after values point to notes of the source that are not given here.

Experiments:
[1] = Determination of pKa of formulated lipids (TNS fluorescence assay in lipid nanoparticles); type: physicochemical; conditions: lipid nanoparticles (compound/DSPC/cholesterol/PEG-lipid), lipid formulated in LNP (cationic lipid/DSPC/cholesterol/PEG-lipid), pH of half-maximal fluorescence
Description: As described elsewhere, the pKa of formulated lipids is correlated with the effectiveness of LNPs for delivery of nucleic acids (see Jayaraman et al, Angewandte Chemie, International Edition (2012), 51(34), 8529-8533; Semple et al, Nature Biotechnology 28, 172-176 (2010)). In some embodiments, the preferred range of pKa is ˜5 to ˜7. The pKa of each lipid is determined in lipid nanoparticles using an assay based on fluorescence of 2-(p-toluidino)-6-napthalene sulfonic acid (TNS). Lipid nanoparticles comprising compound of structure (I)/DSPC/cholesterol/PEG-lipid (50/10/38.5/1.5 or 47.5:10:40.7:1.8 mol %) in PBS at a concentration of 0.4 mM total lipid are prepared using the in-line process as described in Example 1. TNS is prepared as a 100 μM stock solution in distilled water. Vesicles are diluted to 24 μM lipid in 2 mL of buffered solutions containing 10 mM HEPES, 10 mM MES, 10 mM ammonium acetate, and 130 mM NaCl, where the pH ranged from 2.5 to 11. An aliquot of the TNS solution is added to give a final concentration of 1 μM and following vortex mixing fluorescence intensity is measured at room temperature in a SLM Aminco Series 2 Luminescence Spectrophotometer using excitation and emission wavelengths of 321 nm and 445 nm. A sigmoidal best fit analysis is applied to the fluorescence data and the pKa is measured as the pH giving rise to half-maximal fluorescence intensity.

[2] = tested on: luciferase expression in the liver; assay: Luciferase mRNA in vivo evaluation using lipid nanoparticle compositions (liver luciferase expression); design: species or system mice; conditions: tail vein injection, ng luciferase/g liver 4 hours after administration; for Liver Luc @ 0.3 mg/kg: 0.3 mg mRNA/kg; for Liver Luc @ 1.0 mg/kg: 1.0 mg mRNA/kg
Description: (§1) A lipid of structure (I), DSPC, cholesterol and PEG-lipid are solubilized in ethanol at a molar ratio of 50:10:38.5:1.5 or 47.5:10:40.7:1.8. Lipid nanoparticles (LNP) are prepared at a total lipid to mRNA weight ratio of approximately 10:1 to 40:1. Briefly, the mRNA is diluted to 0.2 mg/mL in 10 to 50 mM citrate buffer, pH 4 or 10 to 25 mM acetate buffer, pH 4. Syringe pumps are used to mix the ethanolic lipid solution with the mRNA aqueous solution at a ratio of about 1:5 to 1:3 (vol/vol) with total flow rates above 15 mL/min. The ethanol is then removed, and the external buffer replaced with PBS by dialysis. Finally, the lipid nanoparticles are filtered through a 0.2 µm pore sterile filter.
Studies are performed in 6-8-week-old female C57BL/6 mice (Charles River) or 8-10-week-old CD-1 (Harlan) mice (Charles River) according to guidelines established by an institutional animal care committee (ACC) and the Canadian Council on Animal Care (CCAC). Varying doses of mRNA-lipid nanoparticle are systemically administered by tail vein injection and animals euthanized at a specific time point (e.g., 4 hours) post-administration. Liver and spleen are collected in pre-weighed tubes, weights determined, immediately snap frozen in liquid nitrogen, and stored at −80° C. until processing for analysis.
For liver, approximately 50 mg is dissected for analyses in a 2 mL FastPrep tubes (MP Biomedicals, Solon OH). ¼″ ceramic sphere (MP Biomedicals) is added to each tube and 500 μL of Glo Lysis Buffer—GLB (Promega, Madison WI) equilibrated to room temperature is added to liver tissue. Liver tissues are homogenized with the FastPrep24 instrument (MP Biomedicals) at 2×6.0 m/s for 15 seconds. Homogenate is incubated at room temperature for 5 minutes prior to a 1:4 dilution in GLB and assessed using SteadyGlo Luciferase assay system (Promega). Specifically, 50 μL of diluted tissue homogenate is reacted with 50 μL of SteadyGlo substrate, shaken for 10 seconds followed by 5-minute incubation and then quantitated using a CentroXS^3 LB 960 luminometer (Berthold Technologies, Germany). The amount of protein assayed is determined by using the BCA protein assay kit (Pierce, Rockford, IL). Relative luminescence units (RLU) are then normalized to total μg protein assayed. To convert RLU to ng luciferase a standard curve is generated with QuantiLum Recombinant Luciferase (Promega).
The FLuc mRNA (L-6107) from Trilink Biotechnologies will express a luciferase protein, originally isolated from the firefly, photinus pyralis. FLuc is commonly used in mammalian cell culture to measure both gene expression and cell viability. It emits bioluminescence in the presence of the substrate, luciferin. This capped and polyadenylated mRNA is fully substituted with 5-methylcytidine and pseudouridine.
(§2) Representative compounds of the disclosure shown in Table 2 were formulated using the following molar ratio: 50% cationic lipid/10% distearoylphosphatidylcholine (DSPC)/38.5% Cholesterol/1.5% PEG lipid 2-[2-(ω-methoxy(polyethyleneglycol2000)ethoxy]-N,N-ditetradecylacetamide) or 47.5% cationic lipid/10% DSPC/40.7% Cholesterol/1.8% PEG lipid. Activity was determined by measuring luciferase expression in the liver 4 hours following administration via tail vein injection as described in Example 1 or by measuring the amount of human IgG in mouse serum as described in Example 2. The activity was compared at a dose of 1.0 or 0.5 or 0.3 mg mRNA/kg and expressed as ng luciferase/g liver measured 4 hours after administration, as described in Example 1 or as μg IgG/mL serum measured 24 hours after administration, as described in Example 2. Compound numbers in Table 2 refer to the compound numbers of Table 1.

human IgG in mouse serum = assay: Immunoglobulin G (IgG) mRNA in vivo evaluation using lipid nanoparticle compositions (human IgG ELISA); design: species or system mice; conditions: tail vein injection, μg IgG/mL serum 24 hours after administration; for Serum IgG @ 0.3 mg/kg: 0.3 mg mRNA/kg; for Serum IgG @ 1.0 mg/kg: 1.0 mg mRNA/kg
Description: as §1
Studies are performed in 6-8-week-old CD-1/ICR mice (Envigo) according to guidelines established by an institutional animal care committee (ACC) and the Canadian Council on Animal Care (CCAC). Varying doses of mRNA-lipid nanoparticle are systemically administered by tail vein injection and animals euthanized at a specific time point (e.g., 24 hours) post-administration. The whole blood is collected, and the serum subsequentially separated by centrifuging the tubes of the whole blood at 2000×g for 10 minutes at 4° C. and stored at −80° C. until use for analysis.
For immunoglobulin G (IgG) ELISA (Life Diagnostics Human IgG ELISA kit), the serum samples are diluted at 100 to 15000 folds with 1× diluent solution. 100 μL of diluted serum is dispensed into anti-human IgG coated 96-well plate in duplicate alongside human IgG standards and incubated in a plate shaker at 150 rpm at 25° C. for 45 minutes. The wells are washed 5 times with 1× wash solution using a plate washer (400 μL/well). 100 μL of HRP conjugate is added into each well and incubated in a plate shaker at the same condition above. The wells are washed 5 times again with 1× wash solution using a plate washer (400 μL/well). 100 μL of TMB reagent is added into each well and incubated in a plate shaker at the same condition above. The reaction is stopped by adding 100 μL of Stop solution to each well. The absorbance is read at 450 nm (A450) with a microplate reader. The amount of human IgG in mouse serum is determined by plotting A450 values for the assay standard against human IgG concentration.
as §2

pKa [1] | SMILES | Liver Luc @ 0.3 mg/kg [2] [ng/g] | Liver Luc @ 1.0 mg/kg [2] [ng/g] | Serum IgG @ 0.3 mg/kg (human IgG in mouse serum) [µg/mL] | Serum IgG @ 1.0 mg/kg (human IgG in mouse serum) [µg/mL] | Liver Luc, determined at 0.5 mg/kg ([2]; 0.5 mg mRNA/kg (footnote *))
6.64 | CCCCCCCCC(CCCCCC)COC(=O)CCCCCN(CCCCCC(=O)OCC(CCCCCC)CCCCCCCC)CCN(C)CCCCNC(=O)CCCCCCC (centres unmarked) [Compound I-1, bis(2-hexyldecyl) 6,6′-((2-(methyl(4-octanamidobutyl)amino)ethyl)azanediyl)dihexanoate] | 5497 ± 1457 | 13160 ± 5805 | – | – | –
6.7 | CCCCCCCCC(=O)NCCCN(C)CCN(CCCCCCCC(=O)OCC(CCCCCC)CCCCCCCC)CCCCCCCC(=O)OCC(CCCCCC)CCCCCCCC (centres unmarked) [Compound I-4, bis(2-hexyldecyl) 8,8′-((2-(methyl(3-nonanamidopropyl)amino)ethyl)azanediyl)dioctanoate] | 7747 ± 1565 | 24964 ± 8175 | – | – | –
6.33 | CCCCCCCCC(CCCCCC)COC(=O)CCCCCN(CCCCCC(=O)OCC(CCCCCC)CCCCCCCC)CCN(C)CCCCCC(=O)N(C)CCCCCCCC (centres unmarked) [Compound I-10, bis(2-hexyldecyl) 6,6′-((2-(methyl(6-(methyl(octyl)amino)-6-oxohexyl)amino)ethyl)azanediyl)dihexanoate] | 9794 ± 1750 | 43271 ± 18103 | – | – | –
6.68 | CCCCCCCCC(CCCCCC)COC(=O)CCCCCCCN(CCCCCCCC(=O)OCC(CCCCCC)CCCCCCCC)CCN(C)CCCCNC(=O)CCCCCCC (centres unmarked) [Compound I-5, bis(2-hexyldecyl) 8,8′-((2-(methyl(4-octanamidobutyl)amino)ethyl)azanediyl)dioctanoate] | 6538 ± 11243 | 43609 ± 9207 | – | – | –
6.27 | CCCCCCCCC(CCCCCC)COC(=O)CCCCCN(CCCCCC(=O)OCC(CCCCCC)CCCCCCCC)CCN(C)CCCCCC(=O)NCC(CC)CCCC (centres unmarked) [Compound I-11, bis(2-hexyldecyl) 6,6′-((2-((6-((2-ethylhexyl)amino)-6-oxohexyl)(methyl)amino)ethyl)azanediyl)dihexanoate] | 16601 ± 5871 | 66075 ± 18868 | – | – | –
6.57 | CCCCCCCCCCNC(=O)CCCCCN(C)CCN(CCCCCC(=O)OCC(CCCCCC)CCCCCCCC)CCCCCC(=O)OCC(CCCCCC)CCCCCCCC (centres unmarked) [Compound I-7, bis(2-hexyldecyl) 6,6′-((2-((6-(decylamino)-6-oxohexyl)(methyl)amino)ethyl)azanediyl)dihexanoate] | 10812 ± 2335 | 44836 ± 12026 | – | – | –
6.7 | CCCCCCCCCCCCCC(=O)NCCCCN(C)CCN(CCCCCC(=O)OCC(CCCCCC)CCCCCCCC)CCCCCC(=O)OCC(CCCCCC)CCCCCCCC (centres unmarked) [Compound I-3, bis(2-hexyldecyl) 6,6′-((2-(methyl(4-tetradecanamidobutyl)amino)ethyl)azanediyl)dihexanoate] | – | – | – | – | 31 ± 6* ng/g

Further lines, the molecule ahead of its results:

SMILES | pKa [1] | Liver Luc @ 0.3 mg/kg [2] [ng/g] | Liver Luc @ 1.0 mg/kg [2] [ng/g] | Serum IgG @ 0.3 mg/kg (human IgG in mouse serum) [µg/mL] | Serum IgG @ 1.0 mg/kg (human IgG in mouse serum) [µg/mL] | Liver Luc, determined at 0.5 mg/kg ([2]; 0.5 mg mRNA/kg (footnote *))
CCCCCCCCCCN(CCCCCCCCCC)C(=O)CCCCN(C)CCCCN(CCCCCCOC(=O)C(CCCCCC)CCCCCCCC)CCCCCCOC(=O)C(CCCCCC)CCCCCCCC (centres unmarked) [Compound I-48, ((4-((5-(didecylamino)-5-oxopentyl)(methyl)amino)butyl)azanediyl)bis(hexane-6,1-diyl)bis(2-hexyldecanoate)] | 6.37 | – | – | 4.4 ± 1.1 | 21.8 ± 5.0 | –
CCCCCCCCC(CCCCCC)C(=O)OCCCCCCN(CCCCCCOC(=O)C(CCCCCC)CCCCCCCC)CCN(C)CCCC(=O)N(CCCC)CCCC (centres unmarked) [Compound I-8, ((2-((4-(dibutylamino)-4-oxobutyl)(methyl)amino)ethyl)azanediyl)bis(hexane-6,1-diyl)bis(2-hexyldecanoate)] | 6.13 | 16110 ± 2654 | 56927 ± 16125 | – | – | –
CCCCCCCCC(CCCCCC)COC(=O)CCCCCN(CCCCCC(=O)OCC(CCCCCC)CCCCCCCC)CCCN(C)CCCCC(=O)N(CCCCCC)CCCCCC (centres unmarked) [Compound I-49, Bis(2-hexyldecyl) 6,6′-((3-((5-(dihexylamino)-5-oxopentyl)(methyl)amino)propyl)azanediyl)dihexanoate] | 6.34 | – | – | 42.4 ± 11.7 | 120.6 ± 31.7 | –
CCCCCCCCC(CCCCCC)COC(=O)CCCCCN(CCCCCC(=O)OCC(CCCCCC)CCCCCCCC)CCCN(C)CCCCC(=O)OC (centres unmarked) [Compound I-50, Bis(2-hexyldecyl) 6,6′-((3-((5-methoxy-5-oxopentyl)(methyl)amino)propyl)azanediyl)dihexanoate] | 6.46 | – | – | 15.4 ± 2.6 | 91.5 ± 19.7 | –
CCCCCCCC(=O)NCCCCN(C)CCN(CCCCCCCCCOC(=O)C(CCCC)CCCCCC)CCCCCCCCCOC(=O)C(CCCC)CCCCCC (centres unmarked) [Compound I-6, ((2-(methyl(4-octanamidobutyl)amino)ethyl)azanediyl)bis(nonane-9,1-diyl)bis(2-butyloctanoate)] | 6.56 | 12241 ± 3108 | 67044 ± 44033 | – | – | –
